Like-named read-outs stand apart in the source and are kept apart here.
Columns and labels:
[1] = biological target: T1, BSA (Bos taurus, UniProt P02769); set-up: Intact protein LC/MS covalent labelling, fragments in pools of five, 200 uM each, 4 °C; conditions: 24 h, 4 °C, pool of five; 200 µM; covalent
T1 construct: gene ALB

[2] = biological target: T2, NUDT7 (Homo sapiens, UniProt P0C024); set-up: Intact protein LC/MS covalent labelling, fragments in pools of five, 200 uM each, 4 °C; conditions: 24 h, 4 °C, pool of five; 200 µM; covalent
T2 construct: residues 14-235, E. coli, pNIC28-Bsa4, N-terminal His6 tag removed by TEV, construct 26672 Da

[3] = biological target: T3, OTUB2 (OTUB2A) (Homo sapiens, UniProt Q96DC9); set-up: Intact protein LC/MS covalent labelling, fragments in pools of five, 200 uM each, 4 °C; conditions: 24 h, 4 °C, pool of five; 200 µM; covalent
T3 construct: full length residues 1-234, E. coli BL21(DE3)-R3, His tag removed by TEV, construct 27312 Da
T3 sequence (Q96DC9 1-234): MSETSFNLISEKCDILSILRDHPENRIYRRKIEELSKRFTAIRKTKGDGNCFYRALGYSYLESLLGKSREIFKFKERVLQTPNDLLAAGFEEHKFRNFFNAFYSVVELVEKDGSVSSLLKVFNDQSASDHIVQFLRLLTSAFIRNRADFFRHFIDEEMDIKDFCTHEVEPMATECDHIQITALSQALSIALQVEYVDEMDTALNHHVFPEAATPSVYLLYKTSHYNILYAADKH

[4] = biological target: T4, PCAF (Homo sapiens, UniProt Q92831); set-up: Intact protein LC/MS covalent labelling, fragments in pools of five, 200 uM each, 4 °C; conditions: 24 h, 4 °C, pool of five; 200 µM; covalent
T4 construct: gene KAT2B

[5] = in vitro; set-up: species or system CCD841, HEK293; conditions: human, hb2 cells, read-out: HB-2 Cells Viability (%)
[6] = in vitro; set-up: species or system HB2, HEK293; conditions: human, ccd841 cells
[7] = in vitro; set-up: species or system HB2, CCD841; conditions: human, hek293 cells

T1 sequence (P02769 whole entry, the tested form may be a part): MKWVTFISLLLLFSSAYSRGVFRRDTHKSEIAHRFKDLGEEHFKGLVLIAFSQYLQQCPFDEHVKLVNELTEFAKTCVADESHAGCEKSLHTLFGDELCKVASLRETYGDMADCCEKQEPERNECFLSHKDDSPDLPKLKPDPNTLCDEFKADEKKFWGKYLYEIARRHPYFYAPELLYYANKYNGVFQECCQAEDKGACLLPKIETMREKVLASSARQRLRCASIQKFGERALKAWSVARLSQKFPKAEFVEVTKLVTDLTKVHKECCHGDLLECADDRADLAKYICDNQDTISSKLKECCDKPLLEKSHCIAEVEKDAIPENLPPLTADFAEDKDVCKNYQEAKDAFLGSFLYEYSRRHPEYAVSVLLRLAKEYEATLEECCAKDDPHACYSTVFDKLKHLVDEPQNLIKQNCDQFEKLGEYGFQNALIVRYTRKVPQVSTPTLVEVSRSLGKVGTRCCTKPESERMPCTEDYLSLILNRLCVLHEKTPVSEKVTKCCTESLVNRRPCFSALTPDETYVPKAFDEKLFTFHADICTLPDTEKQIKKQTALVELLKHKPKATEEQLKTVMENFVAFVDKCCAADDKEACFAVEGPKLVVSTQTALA
T2 sequence (P0C024 14-235): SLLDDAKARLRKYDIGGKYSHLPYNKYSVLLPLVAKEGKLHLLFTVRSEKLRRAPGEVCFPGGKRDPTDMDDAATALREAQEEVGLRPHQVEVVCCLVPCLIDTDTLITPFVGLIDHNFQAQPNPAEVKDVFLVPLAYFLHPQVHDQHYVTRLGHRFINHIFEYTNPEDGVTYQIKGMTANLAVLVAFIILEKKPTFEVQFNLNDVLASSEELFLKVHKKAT
T4 sequence (Q92831 whole entry, the tested form may be a part): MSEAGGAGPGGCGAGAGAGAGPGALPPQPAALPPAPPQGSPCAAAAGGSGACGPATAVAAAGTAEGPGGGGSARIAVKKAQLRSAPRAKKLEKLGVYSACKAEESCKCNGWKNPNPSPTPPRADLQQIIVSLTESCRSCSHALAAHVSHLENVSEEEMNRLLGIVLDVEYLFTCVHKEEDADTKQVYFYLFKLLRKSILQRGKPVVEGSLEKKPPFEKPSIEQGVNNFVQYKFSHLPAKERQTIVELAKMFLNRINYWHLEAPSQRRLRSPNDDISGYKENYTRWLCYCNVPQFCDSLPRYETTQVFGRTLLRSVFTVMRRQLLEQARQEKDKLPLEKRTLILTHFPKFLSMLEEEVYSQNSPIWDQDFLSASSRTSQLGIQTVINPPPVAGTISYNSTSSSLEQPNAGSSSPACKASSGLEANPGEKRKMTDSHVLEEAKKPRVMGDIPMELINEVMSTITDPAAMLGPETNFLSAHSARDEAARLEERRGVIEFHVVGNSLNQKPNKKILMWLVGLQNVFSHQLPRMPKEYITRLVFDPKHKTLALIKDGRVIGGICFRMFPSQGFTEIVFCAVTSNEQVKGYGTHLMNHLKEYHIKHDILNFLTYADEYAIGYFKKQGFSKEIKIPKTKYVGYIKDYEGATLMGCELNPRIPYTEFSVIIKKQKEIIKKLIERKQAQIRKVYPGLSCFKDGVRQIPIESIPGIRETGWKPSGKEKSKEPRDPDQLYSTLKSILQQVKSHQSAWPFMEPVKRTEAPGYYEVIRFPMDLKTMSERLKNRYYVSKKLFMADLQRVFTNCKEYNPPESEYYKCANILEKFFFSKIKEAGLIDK

Row | SMILES | BSA [1] | NUDT7 [2] | OTUB2 [3] | PCAF [4] | viability at 48 h, 10 µM [5] | viability at 48 h, 10 µM [6] | viability at 48 h, 10 µM [7]
1 | C=CC(=O)N1CCC(n2cc(C)cn2)CC1 [PCM-0102423] | 0 | 0 | 0.09 | 0 | 104% | 108% | 92.5%
2 | O=C(CCl)N1CCCC(c2nc3ccccc3s2)C1 (stereo not drawn) [PCM-0102425] | 0 | 0.28 | 0 | 0 | 4.1% | 3.5% | 9.4%
3 | CC1(c2ccccc2)NC(=O)N(NC(=O)CCl)C1=O (stereo not drawn) [PCM-0102428] | 0 | 0 | 0 | 0 | 91.2% | 81.4% | 103%
4 | C=CC(=O)N1CCC(n2nnc3c2CCCC3)CC1 [PCM-0102437] | 0 | 0 | 0 | 0 | 106% | 92.9% | 91.5%
5 | CC(c1ccc(F)c(F)c1)N(C)C(=O)CCl (stereo not drawn) [PCM-0102438] | 0 | 0.14 | 0.08 | 0 | 23.2% | 39.3% | 16.4%
6 | C=CC(=O)N1CCN(c2nc3ccccc3o2)C(C)C1 (stereo not drawn) [PCM-0102441] | 0 | 0 | 0 | 0 | 96.7% | 99.4% | 88.3%
7 | C=CC(=O)N1CC2CC3CC(C2)CC1C3 [PCM-0102443] | 0 | 0 | 0.24 | 0 | 99.9% | 115% | 97.7%
8 | C=CC(=O)N1CCC(N2CCS(=O)(=O)CC2)CC1 [PCM-0102444] | 0 | 0 | 0 | 0 | 102% | 109% | 93.6%
9 | C=CC(=O)N1C(C)CNCC1C.O=C(O)C(F)(F)F (stereo not drawn) [PCM-0102447] | 0 | 0 | 0 | 0 | 104% | 109% | 105%
10 | C=CC(=O)N1CCN(C(=O)OCC(C)C)CC1 [PCM-0102449] | 0 | 0 | 0 | 0 | 103% | 80.1% | 76.6%
11 | C=CC(=O)N1CCCN(C(=O)Oc2ccccc2)CC1 [PCM-0102451] | 0 | 0 | 0 | 0 | 96.2% | 105% | 93.9%
12 | C=CC(=O)Nc1ccc(Cl)c(C#N)c1 [PCM-0102453] | 0 | 0 | 0 | 0 | 85.7% | 86.4% | 59.5%
13 | O=C(CCl)NCC(F)(F)F [PCM-0102456] | 0 | 0 | 0 | 0 | 102% | 99.4% | 91.9%
14 | C=CC(=O)N1CCC(S(=O)(=O)NC)C1 (stereo not drawn) [PCM-0102463] | 0 | 0 | 0 | 0 | 97.2% | 104% | 99.6%
15 | O=C(CCl)N1CCN(S(=O)(=O)c2ccccc2)CC1 [PCM-0102468] | 0 | 0 | 0.08 | 0 | 12.6% | 54.9% | 15%

Further lines, with some results ahead:

Row | BSA [1] | NUDT7 [2] | OTUB2 [3] | PCAF [4] | SMILES | viability at 48 h, 10 µM [5] | viability at 48 h, 10 µM [6] | viability at 48 h, 10 µM [7]
16 | 0 | 0.47 | 0 | 0 | CC1CCc2c(sc(NC(=O)CCl)c2C#N)C1 (stereo not drawn) [PCM-0102420] | 50.9% | 81.6% | 43.4%
17 | 0 | 0 | 0 | 0 | O=C(CCl)NC(=O)c1ccccc1Cl [PCM-0102422] | 99.7% | 110% | 93%
18 | 0 | 0 | 0.6 | 0 | O=C(CCl)NNC(=O)c1cccs1 [PCM-0102426] | 86% | 88.7% | 82.8%
19 | 0 | 0 | 0.31 | 0 | O=C(CCl)NNC(=O)c1ccc(F)cc1 [PCM-0102430] | 94.9% | 93.2% | 93.4%
20 | 0 | 0.2 | 0.26 | 0.44 | C=CC(=O)N1CCCC(Cc2nccn2C)C1 (stereo not drawn) [PCM-0102433] | 94.7% | 97.8% | 92.9%
21 | 0 | 0 | 0 | 0 | CCC1CN(C(=O)CCl)CCO1 (stereo not drawn) [PCM-0102436] | 85.5% | 79.3% | 71.4%
22 | 0 | 0 | 0 | 0 | C=CC(=O)N1CCOC2(CCc3ccccc32)C1 (stereo not drawn) [PCM-0102439] | 99.3% | 105% | 92.3%
23 | 0 | 0.08 | 0 | 0 | C=CC(=O)NC1CCCCC1n1cccn1 (stereo not drawn) [PCM-0102440] | 91.4% | 100% | 98.5%
24 | 0 | 0.38 | 0 | 0 | C=CC(=O)NC1(CO)Cc2ccccc2C1 [PCM-0102446] | 101% | 103% | 88.4%
25 | 0 | 0.05 | 0 | 0 | C=CC(=O)NCC1=CCCOC1 [PCM-0102448] | 102% | 104% | 79.4%
26 | 0 | 0 | 0 | 0 | C=CC(=O)NC1(C2CC2)CCOCC1 [PCM-0102450] | 96.2% | 106% | 111%
27 | 0 | 0 | 0.07 | 0 | N#Cc1c(NC(=O)CCl)sc2c1CCC2 [PCM-0102452] | 87.2% | 93.5% | 96.6%
28 | 0 | 1 | 0 | 0 | C=CC(=O)Nc1sc2c(c1C#N)CCCC2 [PCM-0102455] | 64.1% | 72.5% | 81.4%
29 | 0 | 0 | 0 | 0 | N#CC1(NC(=O)CCl)CCCCCC1 [PCM-0102465] | 80.7% | 72.3% | 43.5%
30 | 0 | 0 | 0 | 0 | N#CSc1ccc(NC(=O)CCl)c(Br)c1 [PCM-0102466] | 23.2% | 29.3% | 48.4%
31 | 0 | 0 | 0.38 | 0 | O=C(CCl)NNC(=O)c1cccc(Cl)c1 [PCM-0102470] | 84.7% | 81.3% | 94.8%
32 | 0 | 0 | 0 | 0 | CC(C)n1nccc1NC(=O)CCl.Cl [PCM-0102472] | 92.7% | 107% | 101%
33 | 0 | 0.1 | 0 | 0 | CC(c1ccccc1)N(C)C(=O)CCl (stereo not drawn) [PCM-0102478] | 27.5% | 60.7% | 27.5%

From PMC6556873, “Rapid Covalent-Probe Discovery by Electrophile-Fragment Screening” (Journal of the American Chemical Society, 2019)
